Test results from patent EP2468718A1, “Cabanillasin, a new antifungal compound, produced by entomopathogenic xenorhabdus cabanillasii” (Nosopharm, priority 2010, dated 2012).
Where two headings read alike, the source gives them in different places.

Columns and labels:
Test in all cases: Antifungal susceptibility testing, NCCLS M27-A2 broth microdilution (yeasts)
Format in all cases: cell-based
Candida krusei ATCC 6258 = settings: Pichia kudriavzevii, ATCC6258, read-out: % of growth inhibition
Method: (§1) Cabanillasin activity was tested against different fungal human pathogens: ascomycetes yeasts (Candida albicans ATCC 90029, Candida Glabrata ATCC 90030, Candida krusei ATCC 6258 and Candida lusitaniae CBS 6936), basidiomycetes yeasts (Cryptococcus neoformans clinical strain), ascomycetes filamentous fungi (Aspergilus fumigatus clinical strain, Fusarium oxysporum clinical strain) and zygomycetes filamentous fungi (Rhizopus oryzae environemental strain) by the M38-A microdilution method with RPMI 1640 medium (RPMI 1640, MOPS 160 mM, glucose 18 g/L, pH 7) as recommended in the […]. The NCCLS M27-A2 broth microdilution method (NCCLS) was used when yeasts were tested.
(§2) Yeasts and filamentous inoculi were prepared on YPD medium (yeast extract 10 g/L, peptone 10 g/L and glucose 20 g/L) and Malt medium (malt extract 20 g/L) respectively. The densities of inoculi were adjusted by dilution in RPMI 1640 broth to a value ranged from 5.10^2 to 5.10^3 CFU/mL for yeasts isolates and 5.10^3 to 5.10^4 CFU/mL for filamentous fungi. Microdilution trays (96 U-bottom shaped) containing 190 µL fungal inoculum were added with 10 µL Cabanillasin solution (final concentration ranging from 50 to 0.098 mg/L for all fungi). After inoculation of the trays, all microdilution trays were incubated at 35°C in ambient air. The culture absorbance was measured at 600 nm, 24 h and 48 h after the beginning of the experiments for the yeasts and 48 h and 72 h after the beginning of the experiments for filamentous fungi and Cryptococcus neoformans. The activity results correspond to a percentage of growth inhibition ((1-Abs600 nm culture with Cabanillasin)/ Abs600 nm culture without Cabanillasin) x 100.
(§3) The IC50 value is the concentration at which inhibition of growth is equal to 50%. MICs for Candida species were determined at 24 h and 48 h and corresponded to 100% of growth inhibition. Amphotericin B was provided as standard (final concentration ranging from 16 to 0.03 mg/L for all fungi). Experiments were done in duplicate.

[1] = test system: Candida Glabrata ATCC 90030; settings: Nakaseomyces glabratus, ATCC90030, read-out: % of growth inhibition
Method: as §1, §2, §3

[2] = test system: Candida lusitaniae CBS 6936; settings: Clavispora lusitaniae, CBS6936, read-out: % of growth inhibition
Method: as §1, §2, §3

[3] = test system: Candida albicans ATCC 90029; settings: read-out: % of growth inhibition; for inhibition at 0.03 µg/mL: ATCC90029, 0.03 µg/mL; for inhibition at 0.06 µg/mL: ATCC90029, 0.06 µg/mL; for inhibition at 0.12 µg/mL: ATCC90029, 0.12 µg/mL; for inhibition at 0.25 µg/mL: ATCC90029, 0.25 µg/mL; for inhibition at 0.5 µg/mL: ATCC90029, 0.5 µg/mL; for inhibition at 1 µg/mL: ATCC90029, 1 µg/mL; for inhibition at 2 µg/mL: ATCC90029, 2 µg/mL; for inhibition at 4 µg/mL: ATCC90029, 4 µg/mL; for inhibition at 8 µg/mL: ATCC90029, 8 µg/mL; for inhibition at 16 µg/mL: ATCC90029, 16 µg/mL
Method: as §1, §2, §3

[4] = test system: Cryptococcus neoformans clinical strain; settings: read-out: % of growth inhibition
Method: as §1, §2, §3

SMILES: C[C@@H]1[C@H](O)[C@@H](C)/C=C/C=C/C=C/C=C/C=C/C=C/C=C/[C@H](O[C@@H]2O[C@H](C)[C@@H](O)[C@H](N)[C@@H]2O)C[C@@H]2O[C@](O)(C[C@@H](O)C[C@@H](O)[C@H](O)CC[C@@H](O)C[C@@H](O)CC(=O)O[C@H]1C)C[C@H](O)[C@H]2C(=O)O [Amphotericin B, reference compound]
- inhibition at 0.03 µg/mL (Candida krusei ATCC 6258; 24 h incubation): 0%
- inhibition at 0.03 µg/mL (Candida krusei ATCC 6258; 48 h incubation): 25%
- inhibition at 0.06 µg/mL (Candida krusei ATCC 6258; 24 h incubation): 48.4%
- inhibition at 0.06 µg/mL (Candida krusei ATCC 6258; 48 h incubation): 48%
- inhibition at 0.12 µg/mL (Candida krusei ATCC 6258; 24 h incubation): 100%
- inhibition at 0.12 µg/mL (Candida krusei ATCC 6258; 48 h incubation): 76.7%
- inhibition at 0.25 µg/mL (Candida krusei ATCC 6258; 24 h incubation): 100%
- inhibition at 0.25 µg/mL (Candida krusei ATCC 6258; 48 h incubation): 100%
- inhibition at 0.5 µg/mL (Candida krusei ATCC 6258; 24 h incubation): 100%
- inhibition at 0.5 µg/mL (Candida krusei ATCC 6258; 48 h incubation): 100%
- inhibition at 1 µg/mL (Candida krusei ATCC 6258; 24 h incubation): 100%
- inhibition at 1 µg/mL (Candida krusei ATCC 6258; 48 h incubation): 100%
- inhibition at 2 µg/mL (Candida krusei ATCC 6258; 24 h incubation): 100%
- inhibition at 2 µg/mL (Candida krusei ATCC 6258; 48 h incubation): 100%
- inhibition at 4 µg/mL (Candida krusei ATCC 6258; 24 h incubation): 100%
- inhibition at 4 µg/mL (Candida krusei ATCC 6258; 48 h incubation): 100%
- inhibition at 8 µg/mL (Candida krusei ATCC 6258; 24 h incubation): 100%
- inhibition at 8 µg/mL (Candida krusei ATCC 6258; 48 h incubation): 100%
- inhibition at 16 µg/mL (Candida krusei ATCC 6258; 24 h incubation): 100%
- inhibition at 16 µg/mL (Candida krusei ATCC 6258; 48 h incubation): 100%
- inhibition at 0.03 µg/mL ([1]; 24 h incubation): 16.8%
- inhibition at 0.03 µg/mL ([1]; 48 h incubation): 25%
- inhibition at 0.06 µg/mL ([1]; 24 h incubation): 71.3%
- inhibition at 0.06 µg/mL ([1]; 48 h incubation): 23%
- inhibition at 0.12 µg/mL ([1]; 24 h incubation): 100%
- inhibition at 0.12 µg/mL ([1]; 48 h incubation): 68%
- inhibition at 0.25 µg/mL ([1]; 24 h incubation): 100%
- inhibition at 0.25 µg/mL ([1]; 48 h incubation): 100%
- inhibition at 0.5 µg/mL ([1]; 24 h incubation): 100%
- inhibition at 0.5 µg/mL ([1]; 48 h incubation): 100%
- inhibition at 1 µg/mL ([1]; 24 h incubation): 100%
- inhibition at 1 µg/mL ([1]; 48 h incubation): 100%
- inhibition at 2 µg/mL ([1]; 24 h incubation): 100%
- inhibition at 2 µg/mL ([1]; 48 h incubation): 100%
- inhibition at 4 µg/mL ([1]; 24 h incubation): 100%
- inhibition at 4 µg/mL ([1]; 48 h incubation): 100%
- inhibition at 8 µg/mL ([1]; 24 h incubation): 100%
- inhibition at 8 µg/mL ([1]; 48 h incubation): 100%
- inhibition at 16 µg/mL ([1]; 24 h incubation): 100%
- inhibition at 16 µg/mL ([1]; 48 h incubation): 100%
- inhibition at 0.03 µg/mL ([2]; 24 h incubation): 19%
- inhibition at 0.03 µg/mL ([2]; 48 h incubation): 11.2%
- inhibition at 0.06 µg/mL ([2]; 24 h incubation): 63%
- inhibition at 0.06 µg/mL ([2]; 48 h incubation): 45.4%
- inhibition at 0.12 µg/mL ([2]; 24 h incubation): 100%
- inhibition at 0.12 µg/mL ([2]; 48 h incubation): 84.5%
- inhibition at 0.25 µg/mL ([2]; 24 h incubation): 100%
- inhibition at 0.25 µg/mL ([2]; 48 h incubation): 100%
- inhibition at 0.5 µg/mL ([2]; 24 h incubation): 100%
- inhibition at 0.5 µg/mL ([2]; 48 h incubation): 100%
- inhibition at 1 µg/mL ([2]; 24 h incubation): 100%
- inhibition at 1 µg/mL ([2]; 48 h incubation): 100%
- inhibition at 2 µg/mL ([2]; 24 h incubation): 100%
- inhibition at 2 µg/mL ([2]; 48 h incubation): 100%
- inhibition at 4 µg/mL ([2]; 24 h incubation): 100%
- inhibition at 4 µg/mL ([2]; 48 h incubation): 100%
- inhibition at 8 µg/mL ([2]; 24 h incubation): 100%
- inhibition at 8 µg/mL ([2]; 48 h incubation): 100%
- inhibition at 16 µg/mL ([2]; 24 h incubation): 100%
- inhibition at 16 µg/mL ([2]; 48 h incubation): 100%
- inhibition at 0.03 µg/mL ([3]; 24 h incubation): 30.3%
- inhibition at 0.03 µg/mL ([3]; 48 h incubation): 17%
- inhibition at 0.06 µg/mL ([3]; 24 h incubation): 56.7%
- inhibition at 0.06 µg/mL ([3]; 48 h incubation): 32%
- inhibition at 0.12 µg/mL ([3]; 24 h incubation): 95.2%
- inhibition at 0.12 µg/mL ([3]; 48 h incubation): 70%
- inhibition at 0.25 µg/mL ([3]; 24 h incubation): 100%
- inhibition at 0.25 µg/mL ([3]; 48 h incubation): 100%
- inhibition at 0.5 µg/mL ([3]; 24 h incubation): 100%
- inhibition at 0.5 µg/mL ([3]; 48 h incubation): 100%
- inhibition at 1 µg/mL ([3]; 24 h incubation): 100%
- inhibition at 1 µg/mL ([3]; 48 h incubation): 100%
- inhibition at 2 µg/mL ([3]; 24 h incubation): 100%
- inhibition at 2 µg/mL ([3]; 48 h incubation): 100%
- inhibition at 4 µg/mL ([3]; 24 h incubation): 100%
- inhibition at 4 µg/mL ([3]; 48 h incubation): 100%
- inhibition at 8 µg/mL ([3]; 24 h incubation): 100%
- inhibition at 8 µg/mL ([3]; 48 h incubation): 100%
- inhibition at 16 µg/mL ([3]; 24 h incubation): 100%
- inhibition at 16 µg/mL ([3]; 48 h incubation): 100%
- inhibition at 0.03 µg/mL ([4]; 48 h incubation): 17%
- inhibition at 0.03 µg/mL ([4]; 72 h incubation): 0%
- inhibition at 0.06 µg/mL ([4]; 48 h incubation): 32%
- inhibition at 0.06 µg/mL ([4]; 72 h incubation): 5%
- inhibition at 0.12 µg/mL ([4]; 48 h incubation): 70%
- inhibition at 0.12 µg/mL ([4]; 72 h incubation): 44%
- inhibition at 0.25 µg/mL ([4]; 48 h incubation): 100%
- inhibition at 0.25 µg/mL ([4]; 72 h incubation): 81.5%
- inhibition at 0.5 µg/mL ([4]; 48 h incubation): 100%
- inhibition at 0.5 µg/mL ([4]; 72 h incubation): 100%
- inhibition at 1 µg/mL ([4]; 48 h incubation): 100%
- inhibition at 1 µg/mL ([4]; 72 h incubation): 100%
- inhibition at 2 µg/mL ([4]; 48 h incubation): 100%
- inhibition at 2 µg/mL ([4]; 72 h incubation): 100%
- inhibition at 4 µg/mL ([4]; 48 h incubation): 100%
- inhibition at 4 µg/mL ([4]; 72 h incubation): 100%
- inhibition at 8 µg/mL ([4]; 48 h incubation): 100%
- inhibition at 8 µg/mL ([4]; 72 h incubation): 100%
- inhibition at 16 µg/mL ([4]; 48 h incubation): 100%
- inhibition at 16 µg/mL ([4]; 72 h incubation): 100%
